Broadly, the inhibition is how much of the control response was suppressed. One may read the IC50 as the midpoint of a concentration-inhibition curve.

Series [1] concerns the target T1, Nicotinic acetylcholine receptor alpha9/alpha10 (Rattus norvegicus) (UniProt P43144+Q9JLB5). The series can be described thus: (§1) Inhibition of rat alpha9alpha10 nAChR expressed in Xenopus oocytes assessed as inhibition of Ach-evoked current after 5 mins by voltage-clamp technique. It is filed as cell-based.
Series [2] concerns the target T2, Neuronal acetylcholine receptor subunit alpha-7 (Homo sapiens, UniProt P36544). The series can be described thus: Inhibition of human alpha7 nAChR expressed in Xenopus oocytes assessed as inhibition of Ach-evoked current after 5 mins by voltage-clamp technique. It is filed as cell-based.
Series [3] has as its target Voltage-dependent N-type calcium channel subunit alpha-1B (Rattus norvegicus) (UniProt Q02294). The series can be described thus: Inhibition of N-type Ca channel in Wistar rat DRG neuron at 100 nM by whole cell patch clamp technique relative to control.
Series [4] concerns the target T3, GABA-B receptor (Homo sapiens) (UniProt Q9UBS5+O75899). Nature of the series: Inhibition of human GABAB R1/R2 receptor expressed in HEK293 cells co-expressing human Cav2.2 alpha1B/alpha2delta1/beta3 channel assessed as inhibition of depolarization-activated Ba2+ current at 200 nM by whole cell patch clamp technique relative to control. In kind it is cell-based.

The target in series [5] is T1, Nicotinic acetylcholine receptor alpha9/alpha10 (Rattus norvegicus). Nature of the series: Inhibition of rat alpha9alpha10 nAChR expressed in Xenopus oocytes assessed as inhibition of Ach-evoked current at 30 uM after 5 mins by voltage-clamp technique. It is filed as cell-based.
The target of series [6] is T3, GABA-B receptor (Homo sapiens). The series can be described thus: Inhibition of human GABAB R1/R2 receptor expressed in HEK293 cells co-expressing human Cav2.2 alpha1B/alpha2delta1/beta3 channel assessed as inhibition of depolarization-activated Ba2+ current at 1 uM by whole cell patch clamp technique relative to control. It is filed as cell-based. A general note: Patch clamp records ionic current or voltage across a cell membrane.

Series [7] shares this target. The series can be described thus: Inhibition of human GABAB R1/R2 receptor expressed in HEK293 cells co-expressing human Cav2.2 alpha1B/alpha2delta1/beta3 channel assessed as inhibition of depolarization-activated Ba2+ current by whole cell patch clamp technique relative to control. In kind it is cell-based.
For series [8] the target is unchanged. The series can be described thus: Inhibition of human GABAB R1/R2 receptor expressed in HEK293 cells co-expressing human Cav2.2 alpha1B/alpha2delta1/beta3 channel assessed as inhibition of depolarization-activated Ba2+ current at 1 uM followed by compound washout by whole cell patch clamp technique relative to control. It is filed as cell-based.
Series [9] shares this target. The series can be described thus: Inhibition of human GABAB R1/R2 receptor expressed in HEK293 cells co-expressing human Cav2.2 alpha1B/alpha2delta1/beta3 channel assessed as inhibition of depolarization-activated Ba2+ current depolarization-activated Ba2+ current at 50 uM by whole cell patch clamp technique relative to control. It is filed as cell-based.
Series [10] deals with T4, Voltage-dependent N-type calcium channel subunit alpha-1B/Voltage-dependent calcium channel subunit alpha-2/delta-1/Voltage-dependent L-type calcium channel subunit beta-3 (Homo sapiens) (UniProt P54289+Q00975+P54284). Nature of the series: Inhibition of human GABAB R1/R2 receptor expressed in HEK293 cells co-expressing human Cav2.2 alpha1B/alpha2delta1/beta3 channel assessed as inhibition of depolarization-activated Ba2+ current at 50 uM followed by compound washout by whole cell patch clamp technique relative to control. In kind it is cell-based.

For series [11], the target named is T4, Voltage-dependent N-type calcium channel subunit alpha-1B/Voltage-dependent calcium channel subunit alpha-2/delta-1/Voltage-dependent L-type calcium channel subunit beta-3 (Homo sapiens). The series can be described thus: Inhibition of human Cav2.2 alpha1B/alpha2delta1/beta3 channel expressed in HEK293 cells assessed as inhibition of depolarization-activated Ba2+ current at 1 uM by whole cell patch clamp technique relative to control. It is filed as cell-based.

Series [12] is described as follows: Metabolic stability in human serum assessed as compound remaining at 3 mM after 1 hr by RP-HPLC analysis. In kind it is ADME, cell-free. As to conditions: read-out: Stability.
A short description of series [13]: Metabolic stability in human serum assessed as compound remaining at 3 mM after 24 hrs by RP-HPLC analysis. It is filed as ADME, cell-free. The conditions noted are these: read-out: Stability.
Series [14] deals with Nicotinic acetylcholine receptor alpha9/alpha10 (Rattus norvegicus, UniProt P43144+Q9JLB5). The description is as §1. It is filed as cell-based.
Chain of Nicotinic acetylcholine receptor alpha9/alpha10 (P43144 whole entry): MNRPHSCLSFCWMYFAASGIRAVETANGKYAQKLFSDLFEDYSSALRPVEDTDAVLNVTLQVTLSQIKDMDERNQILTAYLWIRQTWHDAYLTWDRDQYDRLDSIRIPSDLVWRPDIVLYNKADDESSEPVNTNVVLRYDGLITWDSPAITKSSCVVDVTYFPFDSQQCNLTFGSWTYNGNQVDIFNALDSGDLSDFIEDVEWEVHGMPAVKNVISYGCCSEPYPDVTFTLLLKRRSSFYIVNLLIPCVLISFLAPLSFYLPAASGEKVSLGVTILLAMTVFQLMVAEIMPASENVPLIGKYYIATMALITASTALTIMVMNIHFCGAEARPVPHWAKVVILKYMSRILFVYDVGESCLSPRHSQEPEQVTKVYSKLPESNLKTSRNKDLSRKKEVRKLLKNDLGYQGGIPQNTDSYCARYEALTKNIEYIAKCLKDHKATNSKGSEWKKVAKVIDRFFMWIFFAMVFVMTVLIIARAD
Chain of Nicotinic acetylcholine receptor alpha9/alpha10 (Q9JLB5 whole entry): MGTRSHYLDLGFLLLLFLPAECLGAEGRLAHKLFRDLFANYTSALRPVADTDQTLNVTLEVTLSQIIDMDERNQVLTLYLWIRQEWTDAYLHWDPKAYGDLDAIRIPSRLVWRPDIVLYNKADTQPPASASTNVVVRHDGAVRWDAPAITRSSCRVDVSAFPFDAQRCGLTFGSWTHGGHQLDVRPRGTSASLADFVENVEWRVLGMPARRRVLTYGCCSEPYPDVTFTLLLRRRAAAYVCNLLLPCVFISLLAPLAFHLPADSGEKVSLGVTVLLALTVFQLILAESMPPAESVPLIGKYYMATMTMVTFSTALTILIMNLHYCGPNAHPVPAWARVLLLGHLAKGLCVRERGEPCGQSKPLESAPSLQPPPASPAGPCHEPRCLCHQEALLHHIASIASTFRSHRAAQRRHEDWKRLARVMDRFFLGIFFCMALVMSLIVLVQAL
The target of series [15] is T1, Nicotinic acetylcholine receptor alpha9/alpha10 (Rattus norvegicus). Nature of the series: Inhibition of rat alpha9alpha10 nAChR expressed in Xenopus oocytes assessed as inhibition of Ach-evoked current at 3 uM after 5 mins by voltage-clamp technique. In kind it is cell-based.
Series [16] has as its target Voltage-dependent N-type calcium channel subunit alpha-1B (Rattus norvegicus) (UniProt Q02294). The series can be described thus: Inhibition of N-type Ca channel in Wistar rat DRG neuron at 1 nM by whole cell patch clamp technique relative to control.
For series [17], the target named is T2, Neuronal acetylcholine receptor subunit alpha-7. The series can be described thus: Inhibition of human alpha7 nAChR expressed in Xenopus oocytes assessed as inhibition of Ach-evoked current at 3 uM after 5 mins by voltage-clamp technique. It is filed as cell-based.

The structures appear in SMILES notation. Active and inactive are the calls of the source. No cut-off for these calls is given here. Positions of bridges follow the written chain, without caps; N, C: chain ends. Non-standard residues stand in square brackets, D forms with d. Residues, ends and D or L forms follow the SMILES beside them. AllylGly = C=CC[C@H](N)C(=O)O

T2 sequence (P36544 whole entry): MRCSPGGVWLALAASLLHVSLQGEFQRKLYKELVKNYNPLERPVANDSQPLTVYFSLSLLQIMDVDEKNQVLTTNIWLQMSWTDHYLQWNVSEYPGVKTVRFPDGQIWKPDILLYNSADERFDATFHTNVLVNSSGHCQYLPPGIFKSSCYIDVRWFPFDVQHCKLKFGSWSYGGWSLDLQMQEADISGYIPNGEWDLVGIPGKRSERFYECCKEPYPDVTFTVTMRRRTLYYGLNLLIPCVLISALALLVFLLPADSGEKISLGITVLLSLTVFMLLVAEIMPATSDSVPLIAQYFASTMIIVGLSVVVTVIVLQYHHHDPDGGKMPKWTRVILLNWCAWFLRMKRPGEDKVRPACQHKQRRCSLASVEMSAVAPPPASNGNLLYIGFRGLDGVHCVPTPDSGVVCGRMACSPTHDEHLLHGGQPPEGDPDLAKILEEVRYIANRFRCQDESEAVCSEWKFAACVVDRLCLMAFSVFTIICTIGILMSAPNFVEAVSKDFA
Chain of Voltage-dependent N-type calcium channel subunit alpha-1B (Rattus norvegicus) (Q02294 whole entry, looked up): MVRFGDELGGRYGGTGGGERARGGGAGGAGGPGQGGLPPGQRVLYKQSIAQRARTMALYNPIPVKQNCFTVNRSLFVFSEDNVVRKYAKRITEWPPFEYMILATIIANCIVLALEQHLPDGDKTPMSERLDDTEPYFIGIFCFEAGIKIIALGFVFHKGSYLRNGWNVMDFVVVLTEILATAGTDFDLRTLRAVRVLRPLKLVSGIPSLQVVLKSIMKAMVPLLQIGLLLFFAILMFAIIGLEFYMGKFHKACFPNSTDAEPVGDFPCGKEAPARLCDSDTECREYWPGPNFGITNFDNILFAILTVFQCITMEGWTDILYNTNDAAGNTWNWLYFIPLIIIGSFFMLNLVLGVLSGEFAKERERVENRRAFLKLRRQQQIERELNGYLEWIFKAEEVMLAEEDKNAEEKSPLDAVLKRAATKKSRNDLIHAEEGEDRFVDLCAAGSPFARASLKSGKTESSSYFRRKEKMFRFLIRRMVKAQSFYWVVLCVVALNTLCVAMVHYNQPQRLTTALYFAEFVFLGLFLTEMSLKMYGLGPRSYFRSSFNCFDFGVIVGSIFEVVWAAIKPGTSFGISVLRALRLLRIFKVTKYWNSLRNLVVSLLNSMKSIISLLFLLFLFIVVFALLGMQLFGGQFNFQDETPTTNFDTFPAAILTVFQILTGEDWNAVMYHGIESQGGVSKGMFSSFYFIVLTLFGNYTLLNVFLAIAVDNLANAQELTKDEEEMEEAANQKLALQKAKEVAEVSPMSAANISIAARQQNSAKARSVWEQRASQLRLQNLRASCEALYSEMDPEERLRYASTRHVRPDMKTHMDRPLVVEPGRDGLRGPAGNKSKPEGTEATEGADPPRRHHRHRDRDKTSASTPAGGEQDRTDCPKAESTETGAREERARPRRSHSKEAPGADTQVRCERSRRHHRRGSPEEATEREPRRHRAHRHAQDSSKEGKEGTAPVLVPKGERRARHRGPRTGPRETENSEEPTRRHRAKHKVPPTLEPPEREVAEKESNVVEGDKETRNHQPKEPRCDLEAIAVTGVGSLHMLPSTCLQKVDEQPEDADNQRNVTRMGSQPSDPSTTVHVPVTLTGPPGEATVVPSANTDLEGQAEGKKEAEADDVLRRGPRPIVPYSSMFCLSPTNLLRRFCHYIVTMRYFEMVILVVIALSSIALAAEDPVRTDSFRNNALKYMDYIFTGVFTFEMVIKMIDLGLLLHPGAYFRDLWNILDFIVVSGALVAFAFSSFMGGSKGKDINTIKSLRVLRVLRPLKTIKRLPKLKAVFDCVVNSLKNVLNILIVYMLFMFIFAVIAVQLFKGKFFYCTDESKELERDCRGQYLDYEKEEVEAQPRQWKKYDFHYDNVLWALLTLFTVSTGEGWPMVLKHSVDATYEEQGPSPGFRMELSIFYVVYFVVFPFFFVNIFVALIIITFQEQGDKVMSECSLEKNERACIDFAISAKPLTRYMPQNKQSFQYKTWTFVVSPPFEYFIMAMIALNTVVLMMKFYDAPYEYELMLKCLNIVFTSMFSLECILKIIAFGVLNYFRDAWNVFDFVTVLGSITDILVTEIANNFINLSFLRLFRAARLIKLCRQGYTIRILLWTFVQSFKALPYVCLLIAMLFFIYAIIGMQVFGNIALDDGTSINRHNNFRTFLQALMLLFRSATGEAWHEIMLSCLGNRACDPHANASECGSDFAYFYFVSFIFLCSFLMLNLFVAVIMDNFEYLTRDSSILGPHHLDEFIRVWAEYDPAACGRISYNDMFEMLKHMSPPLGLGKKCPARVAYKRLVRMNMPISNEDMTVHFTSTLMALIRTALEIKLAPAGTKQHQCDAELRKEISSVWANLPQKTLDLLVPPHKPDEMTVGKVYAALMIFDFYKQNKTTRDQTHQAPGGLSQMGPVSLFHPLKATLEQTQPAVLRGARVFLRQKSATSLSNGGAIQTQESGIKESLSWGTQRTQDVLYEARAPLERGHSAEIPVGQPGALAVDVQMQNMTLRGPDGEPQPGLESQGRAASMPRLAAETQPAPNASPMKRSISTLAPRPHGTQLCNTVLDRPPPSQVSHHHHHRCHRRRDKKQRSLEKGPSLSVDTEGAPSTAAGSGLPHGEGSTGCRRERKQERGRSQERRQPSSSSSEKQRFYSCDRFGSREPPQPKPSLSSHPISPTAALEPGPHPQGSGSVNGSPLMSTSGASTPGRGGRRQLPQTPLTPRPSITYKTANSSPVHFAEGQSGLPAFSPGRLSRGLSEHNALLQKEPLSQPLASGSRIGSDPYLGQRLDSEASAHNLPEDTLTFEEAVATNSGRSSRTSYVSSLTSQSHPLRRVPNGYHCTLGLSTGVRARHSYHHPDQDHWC

`N=C(N)NCCC[C@H](NC(=O)[C@@H]1CSSC[C@@H]2NC(=O)[C@@H](NC(=O)CN)CSSC[C@H](NC(=O)[C@H](CCCNC(=N)N)NC(=O)[C@@H]3CCCN3C(=O)[C@H](CC(=O)O)NC(=O)[C@H](CO)NC2=O)C(=O)N[C@@H](CCCNC(=N)N)C(=O)N[C@@H](Cc2ccc(O)cc2)C(=O)N[C@@H](CCCNC(=N)N)C(=O)N1)C(=O)O`: the inhibition entry in [1] was “Dose-dependent effect”; in series [2] it was “Dose-dependent effect”; in series [3], 60.6%; in series [4] it was 20%. Further, the IC50 in [2] amounted to 3.3 µM.

`N=C(N)NCCC[C@H](NC(=O)[C@@H]1CSSC[C@@H]2NC(=O)[C@@H](NC(=O)CN)C/C=C\C[C@H](NC(=O)[C@H](CCCNC(=N)N)NC(=O)[C@@H]3CCCN3C(=O)[C@H](CC(=O)O)NC(=O)[C@H](CO)NC2=O)C(=O)N[C@@H](CCCNC(=N)N)C(=O)N[C@@H](Cc2ccc(O)cc2)C(=O)N[C@@H](CCCNC(=N)N)C(=O)N1)C(=O)O`: the inhibition entry in series [5], in [10] and in [11] was “inactive” each time. For the same compound, the inhibition result in [3], in series [8] and in [9] was “Active” each time. The inhibition in series [6] is 35%; in series [7], “Dose-dependent effect”. The remaining at 1 h, 3000 µM in series [12] is 30%. Besides, in series [13], the remaining at 24 h, 3000 µM is 2%.

With `N=C(N)NCCC[C@H](NC(=O)[C@@H]1C/C=C/C[C@@H]2NC(=O)[C@@H](NC(=O)CN)CSSC[C@H](NC(=O)[C@H](CCCNC(=N)N)NC(=O)[C@@H]3CCCN3C(=O)[C@H](CC(=O)O)NC(=O)[C@H](CO)NC2=O)C(=O)N[C@@H](CCCNC(=N)N)C(=O)N[C@@H](Cc2ccc(O)cc2)C(=O)N[C@@H](CCCNC(=N)N)C(=O)N1)C(=O)O` (H-GC[AllylGly]SDPRCRYR[AllylGly]R-OH; disulfide 2-8; staple (E) 3-12), the half-maximal inhibitory concentration (IC50) came out at 1.15 µM in [14] and 3.95 µM in [2]. Also, in series [15], the inhibition stood at 35.4%. Also, the inhibition result in series [16] and in series [6] was “inactive” throughout.

For `N=C(N)NCCC[C@H](NC(=O)[C@@H]1CSSC[C@@H]2NC(=O)[C@@H](NC(=O)CN)C/C=C/C[C@H](NC(=O)[C@H](CCCNC(=N)N)NC(=O)[C@@H]3CCCN3C(=O)[C@H](CC(=O)O)NC(=O)[C@H](CO)NC2=O)C(=O)N[C@@H](CCCNC(=N)N)C(=O)N[C@@H](Cc2ccc(O)cc2)C(=O)N[C@@H](CCCNC(=N)N)C(=O)N1)C(=O)O`, in series [5], the inhibition result is “inactive”. Also, the inhibition entry in [3] is “Active”.

With `N=C(N)NCCC[C@H](NC(=O)[C@@H]1C/C=C\C[C@@H]2NC(=O)[C@@H](NC(=O)CN)CSSC[C@H](NC(=O)[C@H](CCCNC(=N)N)NC(=O)[C@@H]3CCCN3C(=O)[C@H](CC(=O)O)NC(=O)[C@H](CO)NC2=O)C(=O)N[C@@H](CCCNC(=N)N)C(=O)N[C@@H](Cc2ccc(O)cc2)C(=O)N[C@@H](CCCNC(=N)N)C(=O)N1)C(=O)O` (H-GC[AllylGly]SDPRCRYR[AllylGly]R-OH; disulfide 2-8; staple (Z) 3-12), the IC50 in [14] was 1.47 µM. Further, the inhibition in series [15] came out at 31.5%. The inhibition entry in [17] and in [16] was “inactive” in each case.

Values taken from ChEMBL document CHEMBL3352353, “Dicarba analogues of α-conotoxin RgIA. Structure, stability, and activity at potential pain targets” (J Med Chem, 2014).
